Measured values taken from patent US20140286892A1, “USE OF A COMPOUND COMPRISING AT LEAST ONE NUCLEOPHILIC FUNCTION FOR CAPTURING CARBONYL COMPOUNDS RESULTING FROM THE REACTION BETWEEN ONE OR MORE COMPOUNDS CONSTITUTING SEBUM AND OZONE” (L'OREAL, priority 2011, published 2014).

Test: Capture of nonanal applied to skin after treatment with the cosmetic composition
Format: in vivo
Conditions: composition with 10% by weight APTES, pH 9 (lactic acid), 4 mg per cm^2 on skin, left to dry, then nonanal applied
Protocol: A cosmetic composition containing 10% by weight of APTES sold under the name Dow Corning is prepared. The pH of the composition is brought to 9 by adding lactic acid. The cosmetic composition is then applied to the skin in a proportion of 4 mg per cm^2 over the whole of the body, and then left to dry. Nonanal, which is an aldehyde that can be formed following the action of ozone on sebum, is then applied to the skin. An aqueous cosmetic composition containing 1.4% by weight of active materials of a vinylformamide/vinylformamine copolymer sold under the name Lupamine 9030 by the company BASF is prepared. It is applied to the skin in a proportion of 4 mg per cm^2 over the whole of the body, and then left to dry. Nonanal, which is a compound structurally close to those which are formed following the action of ozone on sebum, is then applied to the skin.

Question: Which “trapping of nonanal in the skin” value does the source give for `CCO[Si](CCCN)(OCC)OCC` [APTES, γ-aminopropyltriethoxysilane] here?
Answer: The value was “trapped”.
